Experimental data taken from publication PMC7044277 (Nature Communications, 2020).
Several values for one entry are separate records, joined by “and”; a condition that tells them apart may be missing. Equal entries are not always repeated.

Legend:
Format in all cases: cell-based
320 non-olfactory GPCRs [1] = target: T1, 320 non-olfactory GPCRs (Homo sapiens, UniProt Q5T601)
T1 construct: expressed in transfected cells; host or cells: HTLA cells

320 non-olfactory GPCRs [2] = target: T2, 320 non-olfactory GPCRs (Homo sapiens, UniProt Q15761); conditions: receptor NPY5R; replicate values, Fig_4g
T2 construct: expressed in transfected cells; host or cells: HTLA cells

320 non-olfactory GPCRs [3] = target: T3, 320 non-olfactory GPCRs (Homo sapiens, UniProt Q96P68); conditions: receptor OXGR1; replicate values, Fig_4g
T3 construct: expressed in transfected cells; host or cells: HTLA cells

320 non-olfactory GPCRs [4] = target: T4, 320 non-olfactory GPCRs (Homo sapiens, UniProt P48039); conditions: receptor MTNR1A; replicate values, Fig_4g
T4 construct: expressed in transfected cells; host or cells: HTLA cells
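For Fold of Basal in this document: compound tested at 1 µM final concentration.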
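For GPCRome agonism screen response in this document: fold over basal response of each receptor without drug.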

T1 sequence (Q5T601 20-910): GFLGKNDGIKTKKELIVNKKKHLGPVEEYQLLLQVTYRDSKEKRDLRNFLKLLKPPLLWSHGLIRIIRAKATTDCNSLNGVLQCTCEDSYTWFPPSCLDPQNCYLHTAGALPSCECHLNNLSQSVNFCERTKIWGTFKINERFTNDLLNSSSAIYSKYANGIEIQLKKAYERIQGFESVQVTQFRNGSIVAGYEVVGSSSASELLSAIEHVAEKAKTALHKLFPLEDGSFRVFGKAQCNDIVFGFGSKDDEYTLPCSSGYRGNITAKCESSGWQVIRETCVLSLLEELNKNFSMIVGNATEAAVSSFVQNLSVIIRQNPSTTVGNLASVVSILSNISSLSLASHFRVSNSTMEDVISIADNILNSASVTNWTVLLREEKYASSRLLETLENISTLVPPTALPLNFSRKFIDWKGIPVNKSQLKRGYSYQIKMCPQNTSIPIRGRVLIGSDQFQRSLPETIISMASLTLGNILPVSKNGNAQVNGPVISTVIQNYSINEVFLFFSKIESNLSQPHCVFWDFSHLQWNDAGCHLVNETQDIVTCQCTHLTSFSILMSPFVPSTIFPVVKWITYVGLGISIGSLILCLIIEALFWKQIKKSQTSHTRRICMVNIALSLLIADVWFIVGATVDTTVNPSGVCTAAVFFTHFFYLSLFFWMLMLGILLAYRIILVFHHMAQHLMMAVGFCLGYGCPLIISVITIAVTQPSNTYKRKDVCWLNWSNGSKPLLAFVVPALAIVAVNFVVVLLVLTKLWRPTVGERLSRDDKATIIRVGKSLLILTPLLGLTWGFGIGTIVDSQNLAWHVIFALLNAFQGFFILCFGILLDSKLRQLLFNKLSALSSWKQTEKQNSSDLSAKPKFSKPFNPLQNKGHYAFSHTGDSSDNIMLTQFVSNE
T4 sequence (P48039 whole entry): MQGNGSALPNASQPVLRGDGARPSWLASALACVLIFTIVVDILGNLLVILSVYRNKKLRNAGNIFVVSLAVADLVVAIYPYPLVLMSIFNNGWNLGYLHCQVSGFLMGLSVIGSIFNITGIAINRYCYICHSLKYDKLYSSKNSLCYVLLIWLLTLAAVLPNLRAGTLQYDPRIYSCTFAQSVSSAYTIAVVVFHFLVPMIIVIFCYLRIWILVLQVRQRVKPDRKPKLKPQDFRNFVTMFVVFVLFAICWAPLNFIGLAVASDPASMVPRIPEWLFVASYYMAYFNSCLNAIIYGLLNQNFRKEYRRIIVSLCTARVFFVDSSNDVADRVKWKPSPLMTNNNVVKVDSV
T2 sequence (Q15761 whole entry): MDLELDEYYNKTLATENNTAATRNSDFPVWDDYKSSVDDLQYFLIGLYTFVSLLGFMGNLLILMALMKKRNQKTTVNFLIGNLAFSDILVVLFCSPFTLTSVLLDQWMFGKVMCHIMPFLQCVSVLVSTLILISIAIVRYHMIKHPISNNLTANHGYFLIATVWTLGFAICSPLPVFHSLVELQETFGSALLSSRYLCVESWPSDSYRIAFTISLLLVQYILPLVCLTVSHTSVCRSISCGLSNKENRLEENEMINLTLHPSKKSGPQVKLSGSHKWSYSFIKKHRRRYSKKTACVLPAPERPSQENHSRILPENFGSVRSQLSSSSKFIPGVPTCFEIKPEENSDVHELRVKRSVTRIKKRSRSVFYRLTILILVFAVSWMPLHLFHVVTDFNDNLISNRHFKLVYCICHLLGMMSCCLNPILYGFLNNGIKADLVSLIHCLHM

CCOc1cccc2cc(C(C)NCC3(O)CCCCC3)oc12 (stereo not shown) [O4LE6]
Fold of Basal (320 non-olfactory GPCRs [1]): 0.7534 and 0.5781 and 0.7634
GPCRome agonism screen response (320 non-olfactory GPCRs [2]): 1.549 and 1.454 and 1.619 and 1.735
GPCRome agonism screen response (320 non-olfactory GPCRs [3]): 1.363 and 1.785 and 0.5079 and 1.083
GPCRome agonism screen response (320 non-olfactory GPCRs [4]): 2.743 and 4.229 and 2.242 and 2.817
